These results are taken from patent EP1675855B1, “4-AMINO-QUINOLINE OUINOLIZIDINYL-AND QUINOLIZIDINYLALKYL-DERIVATIVES WITH ANTIMALARIAL ACTIVITY” (Need Pharmaceuticals S.r.l., priority 2003, dated 2005).

For test [1], the system named is chloroquine-sensitive P. falciparum strains. Put plainly: microbe, parasite or virus in culture. The note with it: Plasmodium falciparum. How it is done: (§1) The compounds of the invention were tested in vitro on chloroquine-sensitive and chloroquine-resistant strains of P. falciparum. […] Parasites' growth was evaluated with a colorimetric assay for pLDH at 72 hours.

Test [2] concerns chloroquine-resistant P. falciparum strains. The test is described as follows: microbe, parasite or virus in culture. The following applies: Plasmodium falciparum. How it is done:
as §1

As usually defined, the IC50 is the midpoint of a concentration-inhibition curve. Lower therefore signals inhibition by little substance. On to `CCN(CC)CCCC(C)Nc1ccnc2cc(Cl)ccc12` (centres unmarked) [chloroquine, 7-chloro-4-(4-diethylamino-1-methylbutylamino)quinoline], for which the IC50 in test [1] was 27.8 ± 9 nM; in test [2], 150 to 300 nM.
